Test results: patent publication US20260335278A1, “PHYTOCHEMICAL FORMULATIONS FOR TREATING STRESS AND ANXIETY” (GBS GLOBAL BIOPHARMA, INC., priority 2022, published 2026)
Entries after “also recorded” stand apart in the source; their conditions may differ.

Columns and labels:
zebrafish larvae [1] = experiment: Thigmotaxis assay; format: in vivo; set-up: key: +: statistically significant increase; −−: statistically significant decrease
Protocol: (§1) The validation process for the phytochemicals derived from Piper methysticum, other Piper plant family members, and non-Piper medicinal plants and fungi includes testing the selected phytochemical drug candidates as singles, doubles, and triples in two complementary zebrafish models of stress and anxiety. These two complementary assays are the Light/Dark Stress Response test that is illustrated in FIG. 5 (after the 90 min study of the effect of the compounds and mixtures on Baseline Activity) and the Thigmotaxis assay, as illustrated in FIG. 61A and FIG. 61B, which is also known as the wall flower effect, like the social anxiety of humans. Zebrafish larvae show a clear and distinct pattern of swimming in response to rapidly alternating light and dark conditions in the Light/Dark Response testing, which trigger a flight or fight response and darting behavior indicative of great stress and anxiety. The Light/Dark testing uses a control group to automatically track, using an automatic tracking device, the larval behavior in response to dark to light conditions. The thigmotaxis assay also uses automatic tracking and appropriate controls. In multiple embodiments additional Zebrafish larvae are given various concentrations of the selected phytochemicals from Table 1 for tracking Light/Dark Responses or Thigmotactic behavioral changes in the treated zebrafish larvae. Table 2A and Table 2B summarize the results from both assays when the individual phytochemicals are exposed to the: Baseline Activity (90 minutes in the light), Light/Dark Stress Response (5 min alternating pulses of dark and light for 30 min.), and Thigmotaxis Activity (% of time in the light center of the chamber (anxiety inducing) versus % of time near the dark (soothing) wall).
(§2) The present invention includes a process to discover new pharmaceutical medicines for the treatment of stress, anxiety and anxiety-related disorders in a human. The preclinical testing included the effects of these 14 individual phytochemicals and 300 ratio-controlled mixtures of these phytochemicals in assays measuring the behavioral stress response patterns of zebrafish larvae. Larval behavior is assessed with at least one functional assay of stress or anxiety following acute exposure to each phytochemical sample formulated. Stereotypical basal activity patterns of zebrafish will be assessed to determine the potential side effects of the phytochemical samples in a concentration dependent manner for each compound on two zebrafish models of stress and anxiety: 1) the Light/Dark Stress Response (5 min alternating pulses of light and dark) in small to med well plates (96-48 well plates), and 2) Thigmotaxis assays in large well plates with 50% of the swimming surface colored dark around the margins of the well in large (24-12 well plates) will be assessed for their efficacy in testing the phytochemicals.
(§3) The discovery methods of the present invention include testing the effects of up to 20 phytochemicals and 40 mixtures of the phytochemicals on behavioral stress response patterns of zebrafish larvae. Larval behavior was assessed with an automated video tracking system following acute exposure to each phytochemical sample. Stereotypical basal activity patterns of larvae were assessed to determine the concentration dependent effect of each compound. A zebrafish model of thigmotaxis in large well plates (24-12 well plates) was assessed for their efficacy in testing the phytochemicals. In the discovery method, fertilized eggs were kept on a re-circulating system in baskets until use at 120 hpf (5 days). At 120 hpf, larvae were loaded into 48 well plates in buffered fish media and acclimated to the plate in a heated light incubator for 2 hours. Larvae were acutely exposed with drug or controls at a 10× concentration and the plate was quickly transferred to a behavioral tracking system. Acute behavioral run was 90 minutes (baseline activity) in the light followed by alternating 5 minute bins (total 2 hours). […]

zebrafish larvae [2] = experiment: Baseline activity / baseline exposure (90 min continuous light), zebrafish larvae; format: in vivo; set-up: key to Baseline Exposure: +: statistically significant increase; −−: statistically significant decrease
Protocol: as §1, §2, §3

zebrafish larvae [3] = experiment: Light/Dark Stress Response (5 min alternating pulses of dark and light for 30 min); format: in vivo; set-up: key to Light/Dark Stress Response: +: statistically significant increase; −−: statistically significant decrease
Protocol: as §1, §2, §3

zebrafish larvae [4] = experiment: Zebrafish models of stress and anxiety, overall verdict (Light/Dark Stress Response and thigmotaxis); format: in vivo; conditions: for Anti-Anxiety Potential?: API used singly
Protocol: as §1
Additionally, testing is done with mixtures of these same selected phytochemicals from P. methysticum and other plants selected by our in silico analyses. The testing results are analyzed using artificial intelligence systems to rank effectiveness in reducing the Light/Dark response and thigmotactic behavior for the
The A1 enabled drug discovery platform database search data was evaluated to select the best drug candidates from: A Piper methysticum, B. within the Piper plant family (>200 Piper spp.), or C. traditional medicines to begin testing […] (API) singles, doubles, and triples in two complementary zebrafish models of anxiety light/dark startle response testing and thigmotaxis assays.
as §2
The discovery methods of the present invention include testing the effects of up to 20 phytochemicals and 40 mixtures of the phytochemicals on behavioral stress response patterns of zebrafish larvae. Larval behavior was assessed with an automated video tracking system following acute exposure to each phytochemical sample. […]

MAO-A = conditions: cited from earlier work
MAO-B = conditions: cited from earlier work

COC1=CC(=O)O[C@@H](CCc2ccc3c(c2)OCO3)C1 [(+)-dihydro methysticin]
Thigmotaxis Model (zebrafish larvae [1]; High): −− | Thigmotaxis Model (zebrafish larvae [1]; Med): −− | Baseline Exposure (zebrafish larvae [2]; High): −− | Baseline Exposure (zebrafish larvae [2]; Low): + | Baseline Exposure (zebrafish larvae [2]; Med): −− | baseline Activity (90 min light) (zebrafish larvae [2]; vehicle 0.5% MeOH, listed as Dihydromysticin): baseline activity is close to controls; also recorded: (slight increase initially) | baseline Activity (90 min light) (zebrafish larvae [2]; vehicle 1% MeOH, listed as Dihydromysticin): baseline activity levels reduced; also recorded: (evidence of sedation) | Light/Dark Stress Response (5 min light/dark pulses) (zebrafish larvae [3]; vehicle 0.5% MeOH): stress response is reduced | Light/Dark Stress Response (5 min light/dark pulses) (zebrafish larvae [3]; vehicle 1% MeOH): stress response is reduced, but evidence | Anti-Anxiety Potential? (zebrafish larvae [4]): Yes | Therapeutic Potential (zebrafish larvae [4]; vehicle 0.5% MeOH): Yes | Approx. Dose (cell or animal experiments), MAO-A (MAO-A): MAO-A 23.2 μM, | Approx. Dose (cell or animal experiments), MAO-B (MAO-B): MAO-B 0.855 μM

COC1=CC(=O)O[C@@H](CCc2ccccc2)C1 [(S)-(+)-7,8-dihydrokavain]
Baseline Exposure (zebrafish larvae [2]; High): −− | Baseline Exposure (zebrafish larvae [2]; Low): + | Baseline Exposure (zebrafish larvae [2]; Med): −− | baseline Activity (90 min light) (zebrafish larvae [2]; vehicle 0.5% MeOH): baseline activity is close to controls; also recorded: (slight increase initially) | baseline Activity (90 min light) (zebrafish larvae [2]; vehicle 1% MeOH): baseline activity levels reduced; also recorded: (evidence of sedation) | Light/Dark Stress Response (5 min light/dark pulses) (zebrafish larvae [3]; vehicle 0.5% MeOH): no reduction in stress response | Light/Dark Stress Response (5 min light/dark pulses) (zebrafish larvae [3]; vehicle 1% MeOH): stress response trending down, but high | Anti-Anxiety Potential? (zebrafish larvae [4]): Yes | Therapeutic Potential (zebrafish larvae [4]; vehicle 0.5% MeOH): No | Therapeutic Potential (zebrafish larvae [4]; vehicle 1% MeOH): No | Approx. Dose (cell or animal experiments), MAO-A (MAO-A): MAO-A none, | Approx. Dose (cell or animal experiments), MAO-B (MAO-B): MAO-B 8.23 μM

CCCCCCCCCCCCCCCC(=O)NCCO [N-palmitoyl ethanolamide (PEA), N-palmitoyl ethanolamide]
Baseline Exposure (zebrafish larvae [2]; Med): + | baseline Activity (90 min light) (zebrafish larvae [2]; vehicle not given): baseline activity not like controls; also recorded: (increased at all concentrations) | Light/Dark Stress Response (zebrafish larvae [3]; High): + | Light/Dark Stress Response (zebrafish larvae [3]; Med): + | Light/Dark Stress Response (5 min light/dark pulses) (zebrafish larvae [3]; vehicle not given): stress response sometimes increased | Anti-Anxiety Potential? (zebrafish larvae [4]): No | Therapeutic Potential (zebrafish larvae [4]; vehicle not given): No

COC1=CC(=O)O[C@@H](/C=C/c2ccc3c(c2)OCO3)C1 [R-(+)-methysticin]
Baseline Exposure (zebrafish larvae [2]; High): −− | Baseline Exposure (zebrafish larvae [2]; Low): + | baseline Activity (90 min light) (zebrafish larvae [2]; vehicle 0.5% MeOH): baseline activity levels reduced; also recorded: (evidence of sedation) | baseline Activity (90 min light) (zebrafish larvae [2]; vehicle 1% MeOH): baseline activity levels reduced; also recorded: (evidence of sedation) | Light/Dark Stress Response (5 min light/dark pulses) (zebrafish larvae [3]; vehicle 0.5% MeOH): no reduction in stress response | Light/Dark Stress Response (5 min light/dark pulses) (zebrafish larvae [3]; vehicle 1% MeOH): stress response is reduced, but high | Anti-Anxiety Potential? (zebrafish larvae [4]): No | Therapeutic Potential (zebrafish larvae [4]; vehicle 0.5% MeOH): No | Therapeutic Potential (zebrafish larvae [4]; vehicle 1% MeOH): No, sedative effect | Approx. Dose (cell or animal experiments), MAO-A (MAO-A): MAO-A 8.12 μM, | Approx. Dose (cell or animal experiments), MAO-B (MAO-B): MAO-B 0.5 μM

COc1c(O)cc(O)c2c(=O)cc(-c3ccccc3)oc12 [Wogonin (hydrate), wogonin]
Baseline Exposure (zebrafish larvae [2]; High): + | Baseline Exposure (zebrafish larvae [2]; Med): + | baseline Activity (90 min light) (zebrafish larvae [2]; vehicle 1% MeOH): baseline activity not like controls; also recorded: (increased at med/high | Light/Dark Stress Response (5 min light/dark pulses) (zebrafish larvae [3]; vehicle 1% MeOH): no reduction in stress response | Anti-Anxiety Potential? (zebrafish larvae [4]): No | Therapeutic Potential (zebrafish larvae [4]; vehicle 1% MeOH): No

O=c1cc(-c2ccccc2)oc2cc(O)c(O)c(O)c12 [bacalein]
Baseline Exposure (zebrafish larvae [2]; High): −− | Baseline Exposure (zebrafish larvae [2]; Med): + | baseline Activity (90 min light) (zebrafish larvae [2]; vehicle 1% MeOH): baseline activity not like controls; also recorded: (increased at low concentrations,; also recorded: sedating at higher concentrations) | Light/Dark Stress Response (zebrafish larvae [3]; High): −− | Light/Dark Stress Response (zebrafish larvae [3]; Med): −− | Light/Dark Stress Response (5 min light/dark pulses) (zebrafish larvae [3]; vehicle 1% MeOH): stress response is reduced, but sedation | Anti-Anxiety Potential? (zebrafish larvae [4]): Yes

C=C1CC/C=C(\C)CC[C@@H]2[C@@H]1CC2(C)C [beta caryophyllene]
Baseline Exposure (zebrafish larvae [2]; High): + | Baseline Exposure (zebrafish larvae [2]; Low): + | Baseline Exposure (zebrafish larvae [2]; Med): + | baseline Activity (90 min light) (zebrafish larvae [2]; vehicle 1% MeOH): baseline activity not like controls; also recorded: (increased at all concentrations); also recorded: conc., but baseline activity is concerning | Light/Dark Stress Response (zebrafish larvae [3]; High): −− | Light/Dark Stress Response (zebrafish larvae [3]; Low): + | Light/Dark Stress Response (5 min light/dark pulses) (zebrafish larvae [3]; vehicle 1% MeOH): stress response reduced in highest | Anti-Anxiety Potential? (zebrafish larvae [4]): No | Therapeutic Potential (zebrafish larvae [4]; vehicle 1% MeOH): No

C=C(C)[C@@H]1CCC(C)=C[C@H]1c1c(O)cc(CCCCC)cc1O [cannabidiol (CBD), cannabidiol, reference compound]
Thigmotaxis Model (zebrafish larvae [1]; High): −− | Baseline Exposure (zebrafish larvae [2]; High): −− | Baseline Exposure (zebrafish larvae [2]; Low): + | Baseline Exposure (zebrafish larvae [2]; Med): −− | baseline Activity (90 min light) (zebrafish larvae [2]; vehicle 1% MeOH): baseline activity not like controls; also recorded: (increased at low concentrations,; also recorded: sedating at higher concentrations) | Light/Dark Stress Response (zebrafish larvae [3]; High): −− | Light/Dark Stress Response (zebrafish larvae [3]; Low): + | Light/Dark Stress Response (zebrafish larvae [3]; Med): −− | Light/Dark Stress Response (5 min light/dark pulses) (zebrafish larvae [3]; vehicle 1% MeOH): stress response is reduced | Anti-Anxiety Potential? (zebrafish larvae [4]): Yes

COc1cc(/C=C/C(=O)CC(=O)/C=C/c2ccc(O)c(OC)c2)ccc1O [curcumin]
Baseline Exposure (zebrafish larvae [2]; High): + | Baseline Exposure (zebrafish larvae [2]; Med): + | baseline Activity (90 min light) (zebrafish larvae [2]; vehicle 1% MeOH): baseline activity not like controls; also recorded: (increased at med/high; also recorded: conc., but baseline activity is concerning | Light/Dark Stress Response (zebrafish larvae [3]; High): −− | Light/Dark Stress Response (5 min light/dark pulses) (zebrafish larvae [3]; vehicle 1% MeOH): stress response reduced in highest | Anti-Anxiety Potential? (zebrafish larvae [4]): No | Therapeutic Potential (zebrafish larvae [4]; vehicle 1% MeOH): No, sedative effect | Approx. Dose (cell or animal experiments), MAO-A (MAO-A): MAOA 9.01 μM, MAOB | Approx. Dose (cell or animal experiments), MAO-B (MAO-B): 2.55 µM

C=CCc1ccc(OC)cc1 [methyl chavicol (4-allylanisole), 4-allylanisole]
Baseline Exposure (zebrafish larvae [2]; High): −− | Baseline Exposure (zebrafish larvae [2]; Med): −− | baseline Activity (90 min light) (zebrafish larvae [2]; vehicle 1% MeOH): baseline activity not like controls; also recorded: (decreased at high concentrations) | Light/Dark Stress Response (zebrafish larvae [3]; High): + | Light/Dark Stress Response (5 min light/dark pulses) (zebrafish larvae [3]; vehicle 1% MeOH): no reduction in stress response, some | Anti-Anxiety Potential? (zebrafish larvae [4]): No | Therapeutic Potential (zebrafish larvae [4]; vehicle 1% MeOH): No

COc1cc(/C=C/C(=O)N2CCC=CC2=O)cc(OC)c1OC [piperlongumine]
Thigmotaxis Model (zebrafish larvae [1]; High): −− | Thigmotaxis Model (zebrafish larvae [1]; Med): −− | Baseline Exposure (zebrafish larvae [2]; Med): + | baseline Activity (90 min light) (zebrafish larvae [2]; vehicle 1% MeOH): baseline activity not like controls; also recorded: (increased at low concentrations,; also recorded: sedating at higher concentrations) | Light/Dark Stress Response (zebrafish larvae [3]; High): −− | Light/Dark Stress Response (zebrafish larvae [3]; Low): + | Light/Dark Stress Response (5 min light/dark pulses) (zebrafish larvae [3]; vehicle 1% MeOH): stress response is reduced | Anti-Anxiety Potential? (zebrafish larvae [4]): Yes

farnesene
Baseline Exposure (zebrafish larvae [2]; High): + | Baseline Exposure (zebrafish larvae [2]; Med): + | Light/Dark Stress Response (zebrafish larvae [3]; High): −− | Light/Dark Stress Response (5 min light/dark pulses) (zebrafish larvae [3]; vehicle 1% MeOH): no reduction in stress response | Anti-Anxiety Potential? (zebrafish larvae [4]): Yes | Therapeutic Potential (zebrafish larvae [4]; vehicle 1% MeOH): No
